Read-outs that look alike come from different tables or passages of the source.
Target: T1, HIV protease (Human immunodeficiency virus type 1 group M subtype B, UniProt P04585)
T1 construct: A third viral enzyme known as protease then cleaves the polyproteins
Experiment: Enzymatic Assay for Determining the Inhibition Constant (Ki) of Synthetic Compounds Targeting the HIV Protease (fluorometric FRET assay)
Format: biochemical
Outline: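 Ki obtained via the Henderson equation from enzyme velocities with and without compound, accounting for substrate concentration and Km. Activity followed by FRET fluorescence from cleavage of a substrate flanked by EDANS donor and DABCYL acceptor.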

Structure (SMILES) | Ki | Ki (Anti-protease activity of Ne-amino acid substituted L-lysine derivatives and analogs of formula I, read-out: Ki)
COC(=O)[C@H](CCCCNC(=O)[C@H](Cc1ccccc1)NS(=O)(=O)c1ccc(C)cc1)N(CC(C)C)S(=O)(=O)c1ccc(C)cc1 [Example 68, Nα-Isobutyl-Nα-(4-methylbenzenesulfonyl)-Nε-[N′α-(4-methylbenzenesulfonyl)-L-phenylalanyl]-L-lysine Methyl Ester] | > 300 nM | 
COC(=O)[C@H](CCCCNC(=O)[C@H](Cc1c[nH]c2ccccc12)NS(=O)(=O)c1ccc(C)cc1)N(CC(C)C)S(=O)(=O)c1ccc(C)cc1 [Example 69, Nα-Isobutyl-Nα-(4-methylbenzenesulfonyl)-Nε-[N′α-(4-methylbenzenesulfonyl)-L-tryptophanyl]-L-lysine Methyl Ester] | > 300 nM | 
COC(=O)[C@H](CCCCNC(=O)[C@H](Cc1ccccc1)NC(=O)c1ccccc1)N(CC(C)C)S(=O)(=O)c1ccc(C)cc1 [Example 70, Nα-Isobutyl-Nα-(4-methylbenzenesulfonyl)-Nε-(N′α-benzoyl-L-phenylalanyl)-L-lysine Methyl Ester] | > 300 nM | 
COC(=O)[C@H](CCCCNC(=S)[C@H](Cc1ccccc1)NS(=O)(=O)c1ccc(C)cc1)N(CC(C)C)S(=O)(=O)c1ccc(C)cc1 [Example 71, Nα-Isobutyl-Nα-(4-methylbenzenesulfonyl)-Nε-[N′α-(4-methylbenzenesulfonyl)-L-thiophenylalanyl]-L-lysine Methyl Ester] | > 300 nM | 
Cc1ccc(S(=O)(=O)N[C@@H](Cc2ccccc2)C(=S)NCCCC[C@@H](C(=O)O)N(CC(C)C)S(=O)(=O)c2ccc(C)cc2)cc1 [Example 72, Nα-Isobutyl-Nα-(4-methylbenzenesulfonyl)-Nε-[N′α-(4-methylbenzenesulfonyl)-L-thiophenylalanyl]-L-lysine] | 33 nM | 
Cc1ccc(S(=O)(=O)N[C@@H](Cc2c[nH]c3ccccc23)C(=S)NCCCC[C@@H](C(=O)O)N(CC(C)C)S(=O)(=O)c2ccc(C)cc2)cc1 [Example 73, Nα-Isobutyl-Nα-(4-methylbenzenesulfonyl)-Nε-[N′α-(4-methylbenzenesulfonyl)-L-thiotryptophanyl]-L-lysine] | 14 nM | 
Cc1ccc(S(=O)(=O)N(CC(C)C)[C@@H](CCCCNC(=S)[C@H](Cc2c[nH]c3ccccc23)NS(=O)(=O)c2ccccc2)C(=O)O)cc1 [Example 74, Nα-Isobutyl-Nα-(4-methylbenzenesulfonyl)-Nε-(N′α-benzenesulfonyl-L-thiotryptophanyl)-L-lysine] | 4.8 nM | 
COC(=O)[C@H](CCCCNC(=S)[C@H](Cc1c[nH]c2ccccc12)NS(=O)(=O)c1ccc(C)cc1)N(CC(C)C)S(=O)(=O)c1ccc(C)cc1 [Example 75, Nα-Isobutyl-Nα-(4-methylbenzenesulfonyl)-Nε-[N′α-(4-methylbenzenesulfonyl)-L-thiotryptophanyl]-L-lysine Methyl Ester] | > 300 nM | 
COC(=O)[C@H](CCCCNC(=S)[C@H](Cc1ccccc1)NC(=S)c1ccccc1)N(CC(C)C)S(=O)(=O)c1ccc(C)cc1 [Example 76, Nα-Isobutyl-Nα-(4-methylbenzenesulfonyl)-Nε-(N′α-thiobenzoyl-L-thiophenylalanyl)-L-lysine Methyl Ester] | > 300 nM | 
Cc1ccc(S(=O)(=O)N(CC(C)C)[C@@H](CCCCNC(=S)[C@H](Cc2ccccc2)NC(=S)c2ccccc2)C(=O)O)cc1 [Example 77, Nα-Isobutyl-Nα-(4-methylbenzenesulfonyl)-Nε-(N′α-thiobenzoyl-L-thiophenylalanyl)-L-lysine] | 212 nM | 
Cc1ccc(S(=O)(=O)N(CC(C)C)[C@@H](CCCCNC(=O)[C@H](Cc2ccccc2)NC(=O)OC(C)(C)C)C(=O)O)cc1 [Example 78, Nα-Isobutyl-Nα-(4-methylbenzenesulfonyl)-Nε-(N′α-tert-butoxycarbonyl-L-phenylalanyl)-L-lysine] | 2.5 nM | 
Cc1ccc(S(=O)(=O)N(CC(C)C)[C@@H](CCCCNC(=O)[C@@H](N)Cc2ccccc2)C(=O)O)cc1 [Example 79, Nα-Isobutyl-Nα-(4-methylbenzenesulfonyl)-Nε-(L-phenylalanyl)-L-lysine] | 1.5 nM | 
Cc1ccc(S(=O)(=O)N(CC(C)C)C(CCCCNC(=O)C(Cc2ccccc2)NC(=O)OC2CCOC2)C(=O)O)cc1 [Example 80, Nα-Isobutyl-Nα-(4-methylbenzenesulfonyl)-Nε-[N′α-(carbotetrahydro-3-furanyloxy)-L-phenylalanyl]-L-lysine] | 1.4 nM | 
Cc1ccc(S(=O)(=O)N(CC(C)C)[C@@H](CCCCNC(=O)[C@H](Cc2ccccc2)N(C)C(=O)OC(C)(C)C)C(=O)O)cc1 [Example 81, Nα-Isobutyl-Nα-(4-methylbenzenesulfonyl)-Nε-(N′α-tert-butoxycarbonyl-N′α-methyl-L-phenylalanyl)-L-lysine] | 3.8 nM | 
CSCC[C@H](NC(=O)OC(C)(C)C)C(=O)NCCCC[C@@H](C(=O)O)N(CC(C)C)S(=O)(=O)c1ccc(C)cc1 [Example 82, Nα-Isobutyl-Nα-(4-methylbenzenesulfonyl)-Nε-(N′α-tert-butoxycarbonyl-L-methionyl)-L-lysine] | 65 nM | 
Cc1ccc(CSC[C@H](NC(=O)OC(C)(C)C)C(=O)NCCCC[C@@H](C(=O)O)N(CC(C)C)S(=O)(=O)c2ccc(C)cc2)cc1 [Example 83, Nα-Isobutyl-Nα-(4-methylbenzenesulfonyl)-Nε-[N′α-tert-butoxycarbonyl-S-(4-methylbenzyl)-L-cysteinyl]-L-lysine] |  | 62 nM

Structure (SMILES) | Ki | Ki (Anti-protease activity of Ne-amino acid substituted L-lysine derivatives and analogs of formula I, read-out: Ki)
Cc1ccc(S(=O)(=O)N(CC(C)C)[C@@H](CCCCNC(=O)[C@@H](NC(=O)OC(C)(C)C)[C@@H](C)OCc2ccccc2)C(=O)O)cc1 [Example 84, Nα-Isobutyl-Nα-(4-methylbenzenesulfonyl)-Nε-(N′α-tert-butoxyearbonyl-O-benzyl-L-threonyl)-L-lysine] | 163 nM | 
Cc1ccc(S(=O)(=O)N(CC(C)C)[C@@H](CCCCNC(=O)[C@H](Cc2cn(Cc3ccccc3)cn2)NC(=O)OC(C)(C)C)C(=O)O)cc1 [Example 85, Nα-Isobutyl-Nα-(4-methylbenzenesulfonyl)-Nε-(N′α-tert-butoxycarbonyl-Nτ-benzyl-L-histidinyl)-L-lysine] | 124 nM | 
Cc1ccc(S(=O)(=O)N(CC(C)C)[C@@H](CCCCNC(=O)[C@H](Cc2ccc(OCc3ccccc3)cc2)NC(=O)OC(C)(C)C)C(=O)O)cc1 [Example 87, Nα-Isobutyl-Nα-(4-methylbenzenesulfonyl)-Nε-(N′α-tert-butoxycarbonyl-O-benzyl-L-tyrosyl)-L-lysine] | 49 nM | 
CN[C@@H](Cc1ccccc1)C(=O)NCCCC[C@@H](C(=O)O)N(CC(C)C)S(=O)(=O)c1ccc(C)cc1 [Example 88, Nα-Isobutyl-Nα-(4-methylbenzenesulfonyl)-Nε-(N′α-methyl-L-phenylalanyl)-L-lysine] | 2.1 nM | 
CSCC[C@H](N)C(=O)NCCCC[C@@H](C(=O)O)N(CC(C)C)S(=O)(=O)c1ccc(C)cc1 [Example 89, Nα-Isobutyl-Nα-(4-methylbenzenesulfonyl)-Nε-(L-methionyl)-L-lysine] | 33 nM | 
Cc1ccc(CSC[C@H](N)C(=O)NCCCC[C@@H](C(=O)O)N(CC(C)C)S(=O)(=O)c2ccc(C)cc2)cc1 [Example 90, Nα-Isobutyl-Nα-(4-methylbenzenesulfonyl)-Nε-[S-(4-methylbenzyl)-L-cysteinyl]-L-lysine] | 29 nM | 
Cc1ccc(S(=O)(=O)N(CC(C)C)[C@@H](CCCCNC(=O)[C@@H](N)[C@@H](C)OCc2ccccc2)C(=O)O)cc1 [Example 91, Nα-Isobutyl-Nα-(4-methylbenzenesulfonyl)-Nε-(O-benzyl-L-threonyl)-L-lysine] | 10 nM | 
Cc1ccc(S(=O)(=O)N(CC(C)C)[C@@H](CCCCNC(=O)[C@@H](N)Cc2cn(Cc3ccccc3)cn2)C(=O)O)cc1 [Example 92, Nα-Isobutyl-Nα-(4-methylbenzenesulfonyl)-Nε-(Nτ-benzyl-L-histidinyl)-L-lysine] | > 300 nM | 
Cc1ccc(S(=O)(=O)N(CC(C)C)[C@@H](CCCCNC(=O)[C@@H](N)Cc2c[nH]c3ccccc23)C(=O)O)cc1 [Example 93, Nα-Isobutyl-Nα-(4-methylbenzenesulfonyl)-Nε-(L-tryptophanyl)-L-lysine] | 2.1 nM | 
Cc1ccc(S(=O)(=O)N(CC(C)C)[C@@H](CCCCNC(=O)[C@@H](N)Cc2ccc(OCc3ccccc3)cc2)C(=O)O)cc1 [Example 94, Nα-Isobutyl-Nα-(4-methylbenzenesulfonyl)-Nε-(O-benzyl-L-tyrosyl)-L-lysine] | 177 nM | 
Cc1ccc(S(=O)(=O)N(CC(C)C)[C@H](CO)CCCCNC(=O)[C@H](Cc2ccccc2)NC(=O)c2ccccc2)cc1 [Example 95, (2S,2′S) 2-N-Isobutyl-2-N-(4-methylbenzenesulfonyl)-6-N-(N′α-benzoyl-S-phenylalanyl)-2,6-diaminohexanol] | 54 nM | 
Cc1ccc(S(=O)(=O)N[C@@H](Cc2ccccc2)C(=O)NCCCC[C@@H](CO)N(CC(C)C)S(=O)(=O)c2ccc(C)cc2)cc1 [Example 96, (2S,2′S) 2-N-Isobutyl-2-N-(4-methylbenzenesulfonyl)-6-N-[N′α-(4-methylbenzenesulfonyl)-S-phenylalanyl]-2,6-diaminohexanol] | 16 nM | 
Cc1ccc(S(=O)(=O)N[C@@H](Cc2c[nH]c3ccccc23)C(=O)NCCCC[C@@H](CO)N(CC(C)C)S(=O)(=O)c2ccc(C)cc2)cc1 [Example 97, (2S,2′S) 2-N-Isobutyl-2-N-(4-methylbenzenesulfonyl)-6-N-[N′α-(4-methylbenzenesulfonyl)-S-tryptophanyl]-2,6-diaminohexanol] | 3.6 nM | 
CC(=O)N[C@@H](Cc1c[nH]c2ccccc12)C(=O)NCCCC[C@@H](C(=O)O)N(CC(C)C)S(=O)(=O)c1ccc(C)cc1 [Example 99, Nα-Isobutyl-Nα-(4-methylbenzenesulfonyl)-Nε-(N′α-acetyl-L-tryptophanyl)-L-lysine] | 0.438 nM | 
Cc1ccc(S(=O)(=O)N(CC(C)C)[C@@H](CCCCNC(=O)[C@H](Cc2c[nH]c3ccccc23)NC(=O)C(C)(C)C)C(=O)O)cc1 [Example 100, Nα-Isobutyl-Nα-(4-methylbenzenesulfonyl)-Nε-(N′α-pivaloyl-L-tryptophanyl)-L-lysine] | 0.388 nM | 
